Measured values reported in patent publication US20240148728A1, “NOVEL METHOD TO BLOCK IN[…] DEATH AND IL-1BETA SECRETION CAUSED BY […] UV I[…] GENETIC AND CHEMICAL INHIBITORS OF ZAKA AND THE NLRP1 INFLAMMASOME” (priority 2021, published 2024).
Entries after “also recorded” stand apart in the source; their conditions may differ.

Tests used:
[1] = system: NLRP1-NT; assay: NLRP1 cleavage / NLRP1-NT level by immunoblot; type: cell-based, human
From the text: (§1) The following antibodies were used in this study: cleaved PARP1 (Abclonal, #WH162766), Cleaved CASP3 (Abclonal, #WH154646), Full length GSDMD-FL (Abcam, #ab210070), IL1β p17 specific (CST, #83186S), CARD8 (Abcam, CARD8-NT: ab19485, CARD8-CT: ab241186), DPP9 (Abcam, ab226334), c-Myc (Santa Cruz Biotechnology, #sc-40), HA tag (Santa Cruz Biotechnology, #sc-805), GAPDH (Santa Cruz Biotechnology, #sc-47724), ASC (Adipogen, #AL-177), CASP1 (Santa Cruz Biotechnology, #sc-622), 11_1B (R&D systems, #AF-201), FLAG (SigmaAldrich, #F3165), NLRP1 (R&D systems, #AF6788), IL18 (Abcam ab207324), cleaved GSDMD-NT (Asp275) (Cell Signaling Technology, #36425), RPL31 (Abclonal, #WH162766), CASP7 (Abcam, ab255818), CASP8 (Abcam, ab32397), cleaved CASP3 (Cell Signaling Technology, #9664). All horseradish peroxidase (HRP)— conjugated secondary antibodies were purchased from Jackson Immunoresearch (goat anti-mouse IgG: 115-035-166; goat anti-rabbit IgG: 111-035-144; and donkey anti-goat IgG: 705-005-147). Blue-Native PAGE was carried out using the Native-PAGE system (ThermoFisher) with 10-20 μg of total lysate. For SDS-PAGE using whole cell lysates, cells were resuspended in tris-buffered saline 1% NP-40 with protease inhibitors (Thermo Scientific, #78430). Protein concentration was determined using the Bradford assay (Thermo Scientific, #23200) and […] of protein loaded, a part from cleaved GSDMD-NT visualisation where […] of protein was used. All primary antibodies were used at 250 ng/ml. Visualisation of ASC oligomerization was previously described (Robinson et al., 2020). For analysis of IL1β and IL-18 cleavage in the media by immunoblotting, samples were concentrated using filtered centrifugation (Merck, Amicon Ultra, #UFC5003BIK). Protein samples were run using immunoblotting, and then visualized using a ChemiDoc Imaging system (Bio-Rad). PhosTag SDS-PAGE was carried out using homemade 10% SDS-PAGE gel, with addition of Phos-tag Acrylamide (Wako Chemicals, AAL-107) to a final concentration of 30 μM and manganese chloride(II) (Sigma-Aldrich, #63535) to 60 μM.

[2] = system: mouse bone marrow derived macrophages (BMDMs); assay: ANS-triggered IL1β secretion and cell death in mouse bone marrow derived macrophages; type: cell-based
[3] = system: immortalized keratinocytes (N-TERT); assay: Pyroptosis / apoptosis in N-TERT keratinocytes (morphology, ASC-GFP, PI, Annexin V, immunoblot); type: cell-based, human
From the text: as §1
N-TERT-ASC-GFP cells were seeded at a cell density of 3000 cells/well of a 96 black well plate (PerkinElmer, CellCarrier-96 Ultra, #6055300). The next morning cells were treated with chemicals for 6 h or treated in the evening for 24 h before staining. 1 hour before observing the cells on the microscope the cells were stained with 1 μg/ml dilution of propidium iodide (PI, Abcam #ab14083), 10 ng/ml dilution of Hoechst 33342 (Life Technologies, #H21492) or stained with Annexin V Alexa Flour 647 (Life technologies, #A23204) according to the manufacturer's protocol. Stained cells were then imaged on a high content screening microscope (Perkin Elmer Operetta CLS imaging system). Images were then stored and analyzed using the Harmony software (Version 6). Fluorescent and brightfield images acquired on the Operetta high content screening microscope were further analyzed using a scoring system to categorize the percentages of live, apoptotic and pyroptotic cells. For 3 fields of view per treatment the number of live cells per field was counted from the merge of the brightfield and ASC-GFP channels. Only cells which contained ASC-GFP throughout the cytoplasm and nucleus were classed as “live”. The number of pyroptotic cells was calculated using the merge of the brightfield and ASC-GFP channels. Only the cells with GFP specks were classed as “pyroptotic”. The number of apoptotic cells was calculated using the merge of the brightfield, ASC-GFP and Annexin V channels. Cells that were stained positive for Annexin V but without a GFP speck were classified as “apoptotic”. Images of ASC-GFP specks were acquired in 3 random fields in 4′,6-diaminidino-2-phenylindole (DAPI, 358 nm/461) and GFP (469 nm/525 nm) channels using the EVOS microscope (FL Auto M5000, #AM F5000) according to the manufacturer's protocol. […]

[4] = system: primary human keratinocytes; assay: Inflammasome-driven pyroptosis in primary human keratinocytes; type: cell-based; settings: keratinocytes freshly isolated from a healthy donor
[5] = system: MV4-11; assay: GSDMD cleavage in MV4-11 leukemia cell line; type: cell-based, human; settings: CARD8-activating cell line
[6] = system: ASC; assay: Phosphorylation of inflammasome adaptor ASC; type: cell-based, human; settings: data not shown
[7] = system: NLRP1; assay: Ribosome-bound NLRP1, sucrose cushion; type: cell-based, human; settings: N-TERT cell lysates
Experimental: Crude cellular ribosome fractions were purified by sedimentation through a 30% sucrose cushion or a 10-30% sucrose gradient. Cells were lysed for 20 min in 15 mM Tris, pH 7.5, 0.5% NP-40, 6 mM MgCl2, 300 mM NaCl, with 1× protease inhibitors before centrifugation for 10 min at 12000 g, 4° C. The supernatant was then carefully layered onto a 30% sucrose cushion 30% sucrose in 20 mM Tris, pH 7.5, 2 mM MgCl2, 150 mM KCl and ultra-centrifuged at 34,000 rpm for 24 h using Beckman Coulter Ultracentrifuge, Optima XE. Pellets then washed three times with ice cold PBS and suspended in 100 mM KCl, 5 mM MgCl2, 20 mM HEPES, pH 7.6, 1 mM DTT and 10 mM NH4Cl. Purified ribosome fractions were then analysed by immunoblot.

[8] = system: aortic endothelial cells (HAECs); assay: Inflammasome activation and pyroptosis in aortic endothelial cells; type: cell-based, human; settings: ANS 1 μM
[9] = system: N-TERT cells; assay: Secreted IL1β / inflammasome activation in N-TERT cells; type: cell-based, human
Experimental: To measure secreted cytokine and chemokine levels a human IL1β enzyme linked immunosorbent assay (ELISA) kit (BD, #557953), human IL-18 ELISA kit (MBL, #7620) or an Immune Monitoring 65-Plex Human ProcartaPlex Panel (EPX650-10065-901) were used according to manufacturer's protocols. Further analysis of Luminex or ELISA profiling of samples was performed using heatmap and PCA analysis on Clustervis (biitdotcsdotutdotee/clustvis/) [Somani et al., Proceeding of SSIC (2019)].
as §1

SMILES: COc1ccc(C[C@H]2NC[C@H](O)[C@H]2OC(C)=O)cc1 [ANS, Anisomycin]
- specific cleavage of overexpressed NLRP1 (smaller bands) ([1]; ANS-treated cells): did not observe any smaller bands
- level of intact NLRP1-NT ([1]; NLRP1 KO keratinocytes rescued with full-length NLRP1): caused a significant reduction in the level of intact NLRP1-NT
- IL1β secretion and cell death, wild-type versus Nlrp1a/b KO [2]: did not differ between wild-type and NIrp1a/b KO
- mode of cell death (apoptosis / pyroptosis) ([3]; Annexin V staining and PI inclusion, immunoblot markers): caused both apoptosis and pyroptosis; also recorded: activate both forms of cell death
- mode of cell death in NLRP1 KO cells ([3]; NLRP1 KO N-TERT, Annexin V and PI staining): died exclusively through apoptosis
- apoptotic cell death (cleaved caspase-3 and PARP-1) ([3]; immunoblot): activated classical apoptotic cell death
- biochemical hallmarks of inflammasome activation (ASC polymerization, GSDMD-NT, IL1β p17 in media) ([3]; immunoblot): displayed cardinal biochemical hallmarks of inflammasome activation
- morphological hallmarks of inflammasome activation and pyroptotic cell death ([3]; membrane ballooning, ASC-GFP specks, PI uptake): rapidly induced the morphological hallmarks of inflammasome activation and pyroptotic cell death
- fraction of pyroptotic cells ([3]; single cell level, compared with VbP): comparable to that induced by VbP
- inflammasome-driven pyroptosis [4]: induce inflammasome-driven pyroptosis was also confirmed
- GSDMD cleavage [5]: did not display detectable GSDMD cleavage
- phosphorylation of ASC [6]: not phosphorylated
- level of ribosome-bound NLRP1 [7]: dramatically increased the level of ribosome-bound NLRP1
- canonical inflammasome activation and pyroptosis [8]: underwent canonical inflammasome activation and pyroptosis
- IL1β secretion and pyroptotic death in ZAKα KO cells ([9]; ZAKα KO N-TERT cells): completely resistant
- IL1β secretion at high concentration versus lower doses ([9]; ultra-high doses of ANS): significant decrease in IL1β secretion as compared to lower doses
